Data from patent US11130793B2, “GLP-1/GLP-2 dual agonists” (Zealand Pharma A/S, priority 2016, dated 2021).
Like-named read-outs stand apart in the source and are kept apart here. Square brackets hold non-standard residues; d marks the D form. Peptide text beside a SMILES is read from it. Aib = CC(C)(N)C(=O)O

Tests used:
[1] = Chemical stability, RP-HPLC main peak area-% after incubation at 40° C.; format: physicochemical; conditions: pH 7, 40° C., 14 day incubation, 0.2 mg/ml, normalized purity
Experimental: Samples of each test peptide were dissolved in MilliQ™ water, and the pH of the solution was adjusted to pH 6, 7, 7.5 or 9 using either HCl or NaOH. The final peptide concentration was 0.2 mg/ml. Samples were placed in glass vials and incubated at 40° C. The samples were analyzed by RP-HPLC on a C18 column with gradient elution using an acetonitrile/TFA/water eluent system. The area-percentage (area-%) of the main peak after incubation time T=t (relative to time T=0) was determined by UV spectroscopy at 220 nm.
The purity was first determined as follows: Purity (area-%)=(area of main peak/total area of all peaks)×100.
The purity was then normalized between time points by setting purity at time 0 (T=0) to 100 for each pH value for a given peptide, as follows: Normalised area-% at time t (T=t)=[area-% (T=t)/area-% (T=0)]×100.
The chemical stability assessment results after 14 day incubation (in the form of normalized purity values) are summarized in Table 4.

human GLP-2 receptor [2] = target: T1, human GLP-2 receptor (Homo sapiens, UniProt O95838); test: GLP-2 receptor potency assay (cAMP AlphaScreen, HEK293 cells stably expressing GLP-2R); format: cell-based
T1 sequence (O95838 1-553 D470N): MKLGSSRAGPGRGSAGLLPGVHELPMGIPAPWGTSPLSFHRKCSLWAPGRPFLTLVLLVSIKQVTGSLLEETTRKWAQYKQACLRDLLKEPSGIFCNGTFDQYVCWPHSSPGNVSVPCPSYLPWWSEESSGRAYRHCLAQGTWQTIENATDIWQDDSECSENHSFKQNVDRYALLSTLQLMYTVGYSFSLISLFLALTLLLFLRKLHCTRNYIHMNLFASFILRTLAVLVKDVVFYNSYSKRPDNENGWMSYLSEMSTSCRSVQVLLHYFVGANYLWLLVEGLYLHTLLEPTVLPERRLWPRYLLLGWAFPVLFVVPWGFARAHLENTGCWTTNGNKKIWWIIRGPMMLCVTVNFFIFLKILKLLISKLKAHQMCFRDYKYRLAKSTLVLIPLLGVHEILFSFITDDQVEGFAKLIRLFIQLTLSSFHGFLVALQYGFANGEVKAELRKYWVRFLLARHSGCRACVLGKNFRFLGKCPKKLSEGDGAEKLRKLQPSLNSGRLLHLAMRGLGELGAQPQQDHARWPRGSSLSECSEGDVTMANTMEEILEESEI
Outline: (§1)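 HEK293 cells stably expressing human GLP-2R (G418-selected clone); intracellular cAMP measured by AlphaScreen. Responses normalized to positive and vehicle controls; EC50 and maximal response from 4-parameter logistic fit.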

human GLP-1 receptor = target: T2, human GLP-1 receptor (Homo sapiens, UniProt P43220); test: GLP-1 receptor potency assay (cAMP AlphaScreen, HEK293 cells stably expressing GLP-1R); format: cell-based
T2 construct: expressed in transfected cells
T2 sequence (P43220 24-463): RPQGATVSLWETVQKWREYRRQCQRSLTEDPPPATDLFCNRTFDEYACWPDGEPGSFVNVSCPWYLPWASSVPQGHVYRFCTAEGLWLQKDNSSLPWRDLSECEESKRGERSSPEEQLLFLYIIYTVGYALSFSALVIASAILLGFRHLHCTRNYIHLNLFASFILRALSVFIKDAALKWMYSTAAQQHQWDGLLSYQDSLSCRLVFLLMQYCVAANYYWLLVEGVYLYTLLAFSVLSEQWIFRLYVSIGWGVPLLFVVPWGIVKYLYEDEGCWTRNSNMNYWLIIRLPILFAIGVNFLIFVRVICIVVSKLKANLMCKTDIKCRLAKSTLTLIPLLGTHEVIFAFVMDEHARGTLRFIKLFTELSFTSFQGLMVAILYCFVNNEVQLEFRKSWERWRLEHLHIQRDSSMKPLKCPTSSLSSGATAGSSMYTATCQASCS
Outline: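 A HEK293 clone stably expressing cloned human GLP-1R (G418-selected) was stimulated with compound. Intracellular cAMP was measured by AlphaScreen. Responses were normalized to positive and vehicle controls, and EC50 and maximal response were fitted by 4-parameter logistic regression.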

[3] = system: Normal chow-fed C57BL/6J male mice; test: Effect on fasting glucose and intestinal weight in normal mice; format: in vivo; conditions: for Small intestinal wet weight: 250 nmol/kg s.c. once daily for 4 days, sacrificed 24 hours after final dosing; for Fasting blood glucose: day 0, fasted mice, after a single s.c. injection, 250 nmol/kg
Experimental: Normal chow-fed C57BL/6J male mice were used. The mice were kept in standard housing conditions, light-, temperature-, and humidity-controlled room (12:12 h light-dark cycle, with lights on at 06.00-18.00 h; 20-22° C.; 50-80% relative humidity). Each dosing group consisted of 6 animals. Mice were dosed once daily with 250 nmol/kg with the test compounds or vehicle for 4 days via subcutaneous administration.
On day 0 mice were fasted and blood glucose levels measured after a single s.c. injection with peptides. Animals were sacrificed 24 hours after final dosing on day 3, and small intestinal wet weights were measured.

human GLP-2 receptor [4] = target: T3, human GLP-2 receptor (Homo sapiens, UniProt O95838, D470N); test: GLP-2 receptor potency assay (cAMP AlphaScreen, HEK293 cells stably expressing GLP-2R); format: cell-based; conditions: cAMP response, HEK293 cells expressing human GLP-2R
T3 sequence (O95838 1-553 D470N): T1 sequence (O95838 1-553 D470N)
Outline: as §1

[5] = Solubility assessment by turbidity absorbance at 325 nm; format: physicochemical; conditions: 1 mg/ml peptide
Experimental: A stock solution of the test peptide (2 mg/ml; determined from the weighed amount of peptide) in demineralized water adjusted to pH 2.5 with HCl was prepared, and aliquots were diluted 1:1 in 100 mM acetate buffer (pH 4.0 and pH 5.0), 100 mM histidine buffer (pH 6.0 and pH 7.0) and 100 mM phosphate buffer (pH 6.0, pH 7.0 and pH7.5), respectively, and loaded in a standard flat-bottom, non-sterile 96-well UV Microplate. The absorbance of samples (single samples, n=1) at 280 and 325 nm was measured in an absorbance-based plate reader, which was preheated to ambient temperature (typically 25° C.).

[6] = target: human glucagon-like peptide 1 receptor (GLP-1R) (human) (UniProt P43220)
[7] = cAMP response, HEK293 cells expressing human GLP-1R, read-out: EC50 GLP-1
[8] = 100 mM acetate buffer pH 4.0, ambient temperature, read-out: Solubility, Acetate buffer pH 4
[9] = 100 mM acetate buffer pH 5.0, ambient temperature, read-out: Solubility, Acetate buffer pH 5
[10] = 100 mM histidine buffer pH 6.0, ambient temperature, read-out: Solubility, Histidine buffer pH 6
[11] = 100 mM histidine buffer pH 7.0, ambient temperature, read-out: Solubility, Histidine buffer pH 7
[12] = 100 mM phosphate buffer pH 6.0, ambient temperature, read-out: Solubility, Phosphate buffer pH 6
[13] = 100 mM phosphate buffer pH 7.0, ambient temperature, read-out: Solubility, Phosphate buffer pH 7
[14] = 100 mM phosphate buffer pH 7.5, ambient temperature, read-out: Solubility, Phosphate buffer pH 7.5

Compound | EC50 (human GLP-2 receptor [4]) | EC50 (human GLP-1 receptor; [7]) | solubility [5, 8] | solubility [5, 9] | solubility [5, 10] | solubility [5, 11] | solubility [5, 12] | solubility [5, 13] | solubility [5, 14] | EC50 GLP-1 (nM); cAMP AlphaScreen [6] | pH 7 normalised stability [1] | EC50 (human GLP-2 receptor [2]) | EC50 (human GLP-1 receptor) | Small intestinal wet weight [3] | Fasting blood glucose [3]
H-HGEGTFTSELATILDEQAARDFIAWLIAHKITD-OH [Compound 38] |  |  |  |  |  |  |  |  |  |  | C (<80% normalized stability) | 0.043 nM | 0.008 nM |  | 
CC[C@H](C)[C@H](NC(=O)[C@H](CC(C)C)NC(=O)[C@H](Cc1c[nH]c2ccccc12)NC(=O)[C@H](C)NC(=O)[C@@H](NC(=O)[C@H](Cc1ccccc1)NC(=O)[C@H](CCC(=O)O)NC(=O)[C@H](CCCNC(=N)N)NC(=O)[C@H](CO)NC(=O)[C@H](C)NC(=O)[C@H](CCC(N)=O)NC(=O)[C@H](CCC(=O)O)NC(=O)[C@H](CCC(=O)O)NC(=O)[C@H](CC(C)C)NC(=O)[C@@H](NC(=O)[C@@H](NC(=O)[C@H](CO)NC(=O)[C@H](CC(C)C)NC(=O)[C@H](CCC(=O)O)NC(=O)[C@H](CO)NC(=O)[C@H](CO)NC(=O)[C@H](Cc1ccccc1)NC(=O)[C@@H](NC(=O)CNC(=O)[C@H](CCC(=O)O)NC(=O)C(C)(C)NC(=O)[C@@H](N)Cc1c[nH]cn1)[C@@H](C)O)[C@@H](C)O)[C@@H](C)CC)[C@@H](C)CC)C(=O)N[C@@H](C)C(=O)N[C@@H](Cc1c[nH]cn1)C(=O)N[C@@H](CCCCN)C(=O)N[C@H](C(=O)N[C@H](C(=O)N[C@@H](CCC(=O)O)C(=O)O)[C@@H](C)O)[C@@H](C)CC [Compound 39] (H-H[Aib]EGTFSSELSTILEEQASREFIAWLIAHKITE-OH) |  |  |  |  |  |  |  |  |  |  |  | 0.96 nM | 0.03 nM |  | 

More lines, main results first:

EC50 (human GLP-2 receptor [4]) | EC50 (human GLP-1 receptor; [7]) | solubility [5, 8] | solubility [5, 9] | solubility [5, 10] | solubility [5, 11] | solubility [5, 12] | solubility [5, 13] | solubility [5, 14] | EC50 GLP-1 (nM); cAMP AlphaScreen [6] | Compound | pH 7 normalised stability [1] | EC50 (human GLP-2 receptor [2]) | EC50 (human GLP-1 receptor) | Small intestinal wet weight [3] | Fasting blood glucose [3]
0.067 nM | 0.0098 nM | ≥ 1000 µg/mL | < 1000 µg/mL | ≥ 1000 µg/mL | ≥ 1000 µg/mL | ≥ 1000 µg/mL | ≥ 1000 µg/mL | ≥ 1000 µg/mL |  | CC[C@H](C)[C@H](NC(=O)[C@H](Cc1ccccc1)NC(=O)[C@H](CC(=O)O)NC(=O)[C@H](CCCNC(=N)N)NC(=O)[C@H](C)NC(=O)[C@H](C)NC(=O)[C@H](CCC(N)=O)NC(=O)[C@H](CCC(=O)O)NC(=O)[C@H](CC(=O)O)NC(=O)[C@H](CC(C)C)NC(=O)[C@@H](NC(=O)[C@@H](NC(=O)[C@H](C)NC(=O)[C@H](CC(C)C)NC(=O)[C@H](CCC(=O)O)NC(=O)[C@H](CO)NC(=O)[C@@H](NC(=O)[C@H](Cc1ccccc1)NC(=O)[C@@H](NC(=O)CNC(=O)[C@H](CCC(=O)O)NC(=O)C(C)(C)NC(=O)[C@@H](N)Cc1c[nH]cn1)[C@@H](C)O)[C@@H](C)O)[C@@H](C)O)[C@@H](C)CC)C(=O)N[C@@H](C)C(=O)N[C@@H](Cc1c[nH]c2ccccc12)C(=O)N[C@@H](CC(C)C)C(=O)N[C@H](C(=O)N[C@@H](CCC(=O)O)C(=O)N[C@@H](Cc1c[nH]cn1)C(=O)N[C@@H](CCCCN)C(=O)N[C@H](C(=O)N[C@H](C(=O)N[C@@H](CC(=O)O)C(=O)O)[C@@H](C)O)[C@@H](C)CC)[C@@H](C)CC [Compound 5] (H-H[Aib]EGTFTSELATILDEQAARDFIAWLIEHKITD-OH) |  |  |  | 0.90 g | 5.43 mM
0.036 nM | 0.014 nM | ≥ 1000 µg/mL | < 1000 µg/mL | ≥ 1000 µg/mL | ≥ 1000 µg/mL | ≥ 1000 µg/mL | ≥ 1000 µg/mL | ≥ 1000 µg/mL |  | CC[C@H](C)[C@H](NC(=O)[C@H](CC(C)C)NC(=O)[C@H](Cc1c[nH]c2ccccc12)NC(=O)[C@H](C)NC(=O)[C@@H](NC(=O)[C@H](Cc1ccccc1)NC(=O)[C@H](CC(=O)O)NC(=O)[C@H](CCCNC(=N)N)NC(=O)[C@H](C)NC(=O)[C@H](C)NC(=O)[C@H](CCC(N)=O)NC(=O)[C@H](CCC(=O)O)NC(=O)[C@H](CC(=O)O)NC(=O)[C@H](CC(C)C)NC(=O)[C@@H](NC(=O)[C@@H](NC(=O)[C@H](C)NC(=O)[C@H](CC(C)C)NC(=O)[C@H](CCC(=O)O)NC(=O)[C@H](CO)NC(=O)[C@@H](NC(=O)[C@H](Cc1ccccc1)NC(=O)[C@H](CO)NC(=O)CNC(=O)[C@H](CCC(=O)O)NC(=O)C(C)(C)NC(=O)[C@@H](N)Cc1c[nH]cn1)[C@@H](C)O)[C@@H](C)O)[C@@H](C)CC)[C@@H](C)CC)C(=O)N[C@@H](C)C(=O)N[C@@H](Cc1c[nH]cn1)C(=O)N[C@@H](CCCCN)C(=O)N[C@H](C(=O)N[C@H](C(=O)N[C@@H](CC(=O)O)C(=O)O)[C@@H](C)O)[C@@H](C)CC [Compound 1] (H-H[Aib]EGSFTSELATILDEQAARDFIAWLIAHKITD-OH) |  |  |  | 0.90 g | 5.76 mM
 |  |  |  |  |  |  |  |  | 0.029 nM | Liraglutide (NN2211; Victoza) (peptide) |  |  |  |  | 
